Reference: patent US6858588B2, “Nitrile glycoside useful as a bioenhancer of drugs and nutrients, process of its isolation from moringa oleifera” (Council of Scientific and Industrial Research, priority 2003, dated 2005)

Experiments:
E. coli (CA8000) = test: Bioactivity enhancement of antibiotics (killing, broth/titre assay) against E. coli
M. smegmatis (MC^2 155) = test: Bioactivity enhancement of antibiotics (killing, broth/titre assay) against M. smegmatis; type: cell-based, Mycobacterium smegmatis; settings: Table 5
B. subtilis (MTCC121) = test: Bioactivity enhancement of antibiotics (killing, broth/titre assay) against B. subtilis; type: cell-based, Bacillus subtilis; settings: Table 5
C. albicans = test: Enhancement of anticandidial activity of clotrimazole, broth assay
E. coli CA8000 = test: Enhancement of bacterial transformation with pUC18 plasmid DNA, CA8000
Description: (§1) Overnight grown bacterial E. coli DH5α (Sambrook at al^28) cells were diluted to 10 folds in growth medium and treated with niaziridin @1-10 μg/ml for 4 hours at 37° C. in a shaker (200 RPM).
(§2) These log phase cells were then treated with calcium chloride to induce competence and then transformed with pUC18 plasmid DNA and plated on Luria agar plates containing 100 μg/ml ampicillin.

[1] = Bioavailability test using gastro-intestinal epithelium (U-tube); type: in vitro ADME, goat; settings: in combination; FIG. 3
Description: Specially designed U-tubes of glass consisting of two components (opposite-L type) were used in which one open end of an L-shaped was tapered to fit within the end of the other L-tube (as described in U.S. Pat. No. 6,410,059). The membrane of goat gut (initial part) was stretched and fixed to act as the barrier between the two ends such that by joining the two L-tubes, a U-tube was made. Sterile distilled water was then filled in both the sides to equal height/level. The antibiotic/compound was added to the donor tube (tapered) and through spectro-photometer, the transfer of molecule was observed using UV and visible absorption maxima of the respective molecules by taking the OD at defined wavelengths (264 nm for isoniazid).

[2] = system: M.tuberculosis H37Rv (ATCC 27294); test: Bioactivity enhancement of anti-tubercular drugs, radiometric BACTEC 460 TB system; type: cell-based, Mycobacterium tuberculosis; settings: BACTEC 460, 12 days
[3] = system: E. coli cells (CA 8000), λ phage; test: λ phage adsorption on E. coli cells; settings: Cells pretreated with niaziridin @ 1 ug/ml
Description: Overnight grown bacterial culture (Escherichia coli, CA 8000) was divided into 5 ml of aliquot each in screw cap tubes. One of the tube with the bacterial culture was treated with niaziridin to a final concentration of 1 μg/ml. Both the control and the treated tubes were incubated at 37° C. for 4 hours. The cultures were then infected with λ phage (MOI=10) for 10 minutes at 37° C. (for adsorption) followed by centrifugation at 10000 RPM for 10 minutes at 4° C.
The supernatant and the pellets for both treated and untreated cultures were then compared for the phage titer by plating on top agar containing sensitive bacteria at different dilutions.

E. coli DH5α = test: Enhancement of bacterial transformation with pUC18 plasmid DNA, DH5α
Description: as §1, §2

[4] = anaesthetized rat, 1-10 mg/kg I.V; cited from earlier work
[5] = human volunteers; formulation containing rifampicin, pyrazinamide and isoniazid; cited from earlier work
[6] = Table 4, Amp 6 μg/ml + Niaziridin 0.1 μg/ml
[7] = Table 4, Nal 6 μg/ml + Niaziridin 0.1 μg/ml
[8] = Table 4, Rif 20 μg/ml + Niaziridin 0.1 μg/ml
[9] = Table 4, Rif 30 μg/ml + Niaziridin 0.1 μg/ml
[10] = Table 4, Tet 1 μg/ml + Niaziridin 0.1 μg/ml
[11] = Table 4, Tet 2 μg/ml + Niaziridin 0.1 μg/ml
[12] = Cells pretreated with niaziridin at 1 ug/ml
[13] = Cells pretreated with niaziridin at 10 ug/ml
[14] = Amp (0.1) + Niaziridin 1.0 μg/ml
[15] = Nal (1.0) + Niaziridin 1.0 μg/ml
[16] = Rif (0.05) + Niaziridin 1.0 μg/ml
[17] = Tet (2.0) + Niaziridin 1.0 μg/ml
[18] = Amp (0.01) + Niaziridin 1.0 μg/ml
[19] = Nal (2.0) + Niaziridin 1.0 μg/ml
[20] = Tet (1.0) + Niaziridin 1.0 μg/ml

In the case of `CC1(C)S[C@@H]2[C@H](NC(=O)[C@H](N)c3ccccc3)C(=O)N2[C@H]1C(=O)O` [Amp, ampicillin, reference compound], the “% Survival” value (E. coli (CA8000); Table 4, Amp 6 μg/ml alone) is reported as 3.69%, the Titre (E. coli (CA8000); Table 4, Amp 6 μg/ml alone) is reported as 8.5 × 10^6 and the “% Survival” value (M. smegmatis (MC^2 155); Amp (0.1) alone) is reported as 25.0%. For the same compound, the Titre (M. smegmatis (MC^2 155); Amp (0.1) alone) was 1.0 × 10^8, the “% Survival” value (B. subtilis (MTCC121); Amp (0.01) alone) was 72.5% and the Titre (B. subtilis (MTCC121); Amp (0.01) alone) was 2.9 × 10^8.
For `Clc1ccccc1C(c1ccccc1)(c1ccccc1)n1ccnc1` [Clotrimazole, clotrimazole, reference compound], the “Cfu/ml at 36 h” value (C. albicans; Clotrimazole alone 0.5 ug/ml) was 23.6 × 10^5 Cfu/ml.
For `CCn1cc(C(=O)O)c(=O)c2ccc(C)nc21` [Nal, nalidixic acid, reference compound], the “% Survival” value (E. coli (CA8000); Table 4, Nal 6 μg/ml alone) was 1.0%, the Titre (E. coli (CA8000); Table 4, Nal 6 μg/ml alone) was 6.0 × 10^6 and the “% Survival” value (M. smegmatis (MC^2 155); Nal (1.0) alone) was 92.5%. The Titre (M. smegmatis (MC^2 155); Nal (1.0) alone) was 3.7 × 10^8, the “% Survival” value (B. subtilis (MTCC121); Nal (2.0) alone) was 7.75% and the Titre (B. subtilis (MTCC121); Nal (2.0) alone) was 3.1 × 10^7.
For `CC1OC(Oc2ccc(CC#N)cc2O)C(O)C(O)C1O` (centres unmarked) [Niaziridin, NIAZIRIDIN], the “% Survival” value (E. coli (CA8000); [6]) was 0.69%, the “Fold enhancement in killing over antibiotic alone” value (“Fold enhancement in killing” below) (E. coli (CA8000); [6]) was 5.3 fold and the Titre (E. coli (CA8000); [6]) was 1.6 × 10^6. For the same compound, the “% Survival” value (E. coli (CA8000); [7]) was 0.02%, the “Fold enhancement in killing” value (E. coli (CA8000); [7]) was 50.0 fold and the Titre (E. coli (CA8000); [7]) was 1.2 × 10^5. The “% Survival” value (E. coli (CA8000); [8]) was 0.0035%, the “Fold enhancement in killing” value (E. coli (CA8000); [8]) was 38.8 fold and the Titre (E. coli (CA8000); [8]) was 3.9 × 10^3. The “% Survival” value (E. coli (CA8000); [9]) was 0.003%, the “Fold enhancement in killing” value (E. coli (CA8000); [9]) was 12.6 fold and the Titre (E. coli (CA8000); [9]) was 3.0 × 10^3. For the same compound, the “% Survival” value (E. coli (CA8000); [10]) was 0.5%, the “Fold enhancement in killing” value (E. coli (CA8000); [10]) was 2.3 fold and the Titre (E. coli (CA8000); [10]) was 3.0 × 10^6. For the same compound, the “% Survival” value (E. coli (CA8000); [11]) was 0.11%, the “Fold enhancement in killing” value (E. coli (CA8000); [11]) was 5.2 fold and the Titre (E. coli (CA8000); [11]) was 7.5 × 10^5. The “Enhancement of activity of commonly used antibiotics (rifampicin, tetracycline, nalidixic acid etc)” value (E. coli (CA8000); text summary of Table 4) was “enhanced activity”, the “Fold enhancement in DNA transformation” value (E. coli CA8000; [12]) was 1.9 fold and the “Titre (transformants)” value (E. coli CA8000; [12]) was 8.30 10^3. The “Fold enhancement in DNA transformation” value (E. coli CA8000; [13]) was 5.5 fold, the “Titre (transformants)” value (E. coli CA8000; [13]) was 24.0 10^3 and the “Uptake of nutrients like Vitamine B12 through the intestinal gut membrane” value [1] was “able to facilitate the uptake”. The “% Survival” value (M. smegmatis (MC^2 155); [14]) was 5.25%, the “Folds enhancement in killing” value (M. smegmatis (MC^2 155); [14]) was 4.7 folds and the Titre (M. smegmatis (MC^2 155); [14]) was 2.1 × 10^7. The “% Survival” value (M. smegmatis (MC^2 155); [15]) was 75.0%, the “Folds enhancement in killing” value (M. smegmatis (MC^2 155); [15]) was 1.2 folds and the Titre (M. smegmatis (MC^2 155); [15]) was 3.0 × 10^8. For the same compound, the “% Survival” value (M. smegmatis (MC^2 155); [16]) was 16.75%, the “Folds enhancement in killing” value (M. smegmatis (MC^2 155); [16]) was 1.9 folds and the Titre (M. smegmatis (MC^2 155); [16]) was 6.7 × 10^6. The “% Survival” value (M. smegmatis (MC^2 155); [17]) was 7.5%, the “Folds enhancement in killing” value (M. smegmatis (MC^2 155); [17]) was 4.0 folds and the Titre (M. smegmatis (MC^2 155); [17]) was 3.0 × 10^7. For the same compound, the “Cfu/ml at 36 h” value (C. albicans; Clotrimazole 0.5 ug/ml + Niaziridin 10 ug/ml) was 4.5 × 10^5 Cfu/ml, the “Fold enhancement of lethal activity” value (C. albicans; Clotrimazole 0.5 ug/ml + Niaziridin 10 ug/ml, 36 h) was 5.2 fold and the “% Survival” value (B. subtilis (MTCC121); [18]) was 14.2%. The “Folds enhancement in killing” value (B. subtilis (MTCC121); [18]) was 5.1 folds, the Titre (B. subtilis (MTCC121); [18]) was 5.7 × 10^7 and the “% Survival” value (B. subtilis (MTCC121); [19]) was 1.1%. The “Folds enhancement in killing” value (B. subtilis (MTCC121); [19]) was 7.0 folds, the Titre (B. subtilis (MTCC121); [19]) was 4.6 × 10^6 and the “% Survival” value (B. subtilis (MTCC121); [16]) was 2.7%. For the same compound, the “Folds enhancement in killing” value (B. subtilis (MTCC121); [16]) was 19.4 folds, the Titre (B. subtilis (MTCC121); [16]) was 1.1 × 10^7 and the “% Survival” value (B. subtilis (MTCC121); [20]) was 5.0%. For the same compound, the “Folds enhancement in killing” value (B. subtilis (MTCC121); [20]) was 3.5 folds, the Titre (B. subtilis (MTCC121); [20]) was 2.0 × 10^7 and the “Enhancement of activity of rifampicin, ampicillin, nalidixic acid” value (B. subtilis (MTCC121); range over both Gram (+) strains (B. subtilis and M. smegmatis)) was 1.2-19 folds. The “Enhancement of antimycobacterial activity of rifampicin (Growth Index)” value ([2]; FIG. 1) was “able to enhance”, the “Enhancement of antimycobacterial activity of isoniazid (Growth Index)” value ([2]; FIG. 2) was “able to enhance” and the “Phage titer, Pellet” value ([3]; MOI 5) was 7.7 10^7 pfu. The “Phage titer, Supernatant” value ([3]; MOI 5) was 7.7 10^7 pfu, the “Phage titer, Pellet” value ([3]; MOI 10) was 18.0 10^7 pfu and the “Phage titer, Supernatant” value ([3]; MOI 10) was 8.0 10^7 pfu. The “Fold enhancement in DNA transformation” value (E. coli DH5α; [12]) was 1.9 fold, the “Titre (transformants)” value (E. coli DH5α; [12]) was 16.0 10^4 and the “Fold enhancement in DNA transformation” value (E. coli DH5α; [13]) was 2.3 fold. For the same compound, the “Titre (transformants)” value (E. coli DH5α; [13]) was 20.0 10^4.
With `CO[C@H]1/C=C/O[C@@]2(C)Oc3c(C)c(O)c4c(O)c(c(/C=N/N5CCN(C)CC5)c(O)c4c3C2=O)NC(=O)/C(C)=C\C=C\[C@H](C)[C@H](O)[C@@H](C)[C@@H](O)[C@@H](C)[C@H](OC(C)=O)[C@@H]1C` [Rif, rifampicin] the “% Survival” value (E. coli (CA8000); Table 2, Rif 20 μg/ml alone) was 24.2%, the Titre (E. coli (CA8000); Table 2, Rif 20 μg/ml alone) was 3.4 × 10^7 and the “% Survival” value (E. coli (CA8000); Table 2, Rif 30 μg/ml alone) was 21.4%. For the same compound, the Titre (E. coli (CA8000); Table 2, Rif 30 μg/ml alone) was 3.0 × 10^7, the “% Survival” value (E. coli (CA8000); Table 3, Rif 20 μg/ml alone) was 40.0% and the Titre (E. coli (CA8000); Table 3, Rif 20 μg/ml alone) was 1.00 × 10^8. The “% Survival” value (E. coli (CA8000); Table 3, Rif 30 μg/ml alone) was 23.3%, the Titre (E. coli (CA8000); Table 3, Rif 30 μg/ml alone) was 5.81 × 10^7 and the “% Survival” value (E. coli (CA8000); Table 4, Rif 20 μg/ml alone) was 0.0136%. The Titre (E. coli (CA8000); Table 4, Rif 20 μg/ml alone) was 1.5 × 10^4, the “% Survival” value (E. coli (CA8000); Table 4, Rif 30 μg/ml alone) was 0.038% and the Titre (E. coli (CA8000); Table 4, Rif 30 μg/ml alone) was 3.8 × 10^4. For the same compound, the “% Survival” value (M. smegmatis (MC^2 155); Rif (0.05) alone) was 32.5%, the Titre (M. smegmatis (MC^2 155); Rif (0.05) alone) was 1.3 × 10^7 and the “% Survival” value (B. subtilis (MTCC121); Rif (0.05) alone) was 52.5%. The Titre (B. subtilis (MTCC121); Rif (0.05) alone) was 2.1 × 10^8.
In the case of `CN(C)[C@@H]1C(=O)C(C(N)=O)=C(O)[C@@]2(O)C(=O)C3=C(O)c4c(O)cccc4[C@@](C)(O)[C@H]3C[C@@H]12` [Tet, tetracycline, reference compound], the “% Survival” value (E. coli (CA8000); Table 4, Tet 1 μg/ml alone) is reported as 1.16%, the Titre (E. coli (CA8000); Table 4, Tet 1 μg/ml alone) is reported as 7.0 × 10^6 and the “% Survival” value (E. coli (CA8000); Table 4, Tet 2 μg/ml alone) is reported as 0.58%. The Titre (E. coli (CA8000); Table 4, Tet 2 μg/ml alone) was 3.5 × 10^6, the “% Survival” value (M. smegmatis (MC^2 155); Tet (2.0) alone) was 30.0% and the Titre (M. smegmatis (MC^2 155); Tet (2.0) alone) was 1.2 × 10^8. The “% Survival” value (B. subtilis (MTCC121); Tet (1.0) alone) was 17.5% and the Titre (B. subtilis (MTCC121); Tet (1.0) alone) was 7.0 × 10^7.
For `CCOC(=S)NCc1ccc(OC2OC(C)C(O)C(O)C2O)cc1` (centres unmarked) [niazimicin], the “Hypotensive and bradycardiac effect” value [4] is listed as “produced hypotensive and bradycardiac effect”.
In the case of `COC(=S)NCc1ccc(O[C@@H]2O[C@@H](C)[C@H](O)[C@@H](O)[C@H]2O)cc1` [niazinin A], the “Hypotensive and bradycardiac effect” value [4] is listed as “produced hypotensive and bradycardiac effect”.
In the case of `O=C(/C=C/C=C/c1ccc2c(c1)OCO2)N1CCCCC1` [piperine], the “Comparative levels and peak concentration of the drugs in the presence of piperine” value [5] is given as “higher”.
For niaziminin A, the “Hypotensive and bradycardiac effect” value [4] is given as “produced hypotensive and bradycardiac effect”.
In the case of niaziminin B, the “Hypotensive and bradycardiac effect” value [4] is given as “produced hypotensive and bradycardiac effect”.
For niazinin B, the “Hypotensive and bradycardiac effect” value [4] is given as “produced hypotensive and bradycardiac effect”.
